The results in this text go back to patent US6359129B1, “Amino acid-derived, 7-membered cyclic sulfamides and methods of synthesizing the same” (University of Kansas, priority 2000, dated 2002).

What all share (assay type): biochemical
Test [1] concerns the target Herpes Simplex Virus Protease (Human herpesvirus 1, UniProt P10210). The experiment in a line: Inhibition of Herpes Simplex Virus Protease. The following applies: compound tested at 200 μmolar. The method, then:
The inhibition of Herpes Simplex Virus Protease by the compound shown in Scheme R was determined according to the procedure described by Waxman et al., Antiviral Chemistry and Chemotherapy, 11:1-22 (1999); Qiu et al., Proteases of Infectious Agents, Academic Press, 93-115 (1999); and U.S. Pat. No. 6,008,033, each incorporated by reference herein.
The compound was tested at a concentration of 200 μmolar. [drawing 25]

The next test has as its target T1, HIV protease (Human immunodeficiency virus type 1 group M subtype B, UniProt P04585).
T1 construct: a key virally encoded protease enzyme of the pol gene
The experiment in a line: Inhibition of HIV protease. Conditions: compound at 99 μmolar. The method, then: The inhibition of HIV protease by the compounds shown in Scheme S (99 μmolar), Scheme T (99 μmolar), and Scheme U (99 μmolar) was determined following the procedure described by Maschera et al., Human Immunodeficiency Virus: Mutations in the Viral Protease that Confer Resistance to Saquinavir Increase the Dissociation Rate Constant for the Protease-Saquinavir Complex, J. Biol. Chem., 271:33231-35 (1996), incorporated by reference herein. [drawing 26] [drawing 27] [drawing 28]

For another test, the target named is T2, human cathepsin K (Homo sapiens, UniProt P43235).
T2 sequence (P43235 115-329): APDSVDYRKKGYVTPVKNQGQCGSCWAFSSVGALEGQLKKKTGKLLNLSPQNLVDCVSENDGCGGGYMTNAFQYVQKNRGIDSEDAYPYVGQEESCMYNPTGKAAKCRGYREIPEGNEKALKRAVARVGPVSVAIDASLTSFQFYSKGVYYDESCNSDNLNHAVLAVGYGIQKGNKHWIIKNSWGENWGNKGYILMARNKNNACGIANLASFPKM
The test can be described thus: Inhibition of human cathepsin K (fluorogenic peptide assay). The following applies: compound at 106 μmolar; pH 5.5, 10 μmolar peptide, 32° C. The method, then:
The inhibition of human cathepsin K by the compounds shown in Schemes V (106 μmolar) and W (106 μmolar) was determined. [drawing 29] [drawing 30]
The peptides utilized were chromophoric Z-Phe-Arg-pNA*HCl and fluorogenic Z-Phe-Arg-AMC (each available from BACHEM Bioscience, Inc.). Stock solutions were prepared with 100% dimethylsulfoxide (DMSO) and stored at −20° C.
The final assay conditions were 100 mM NaOAc, pH of 5.5, 10 mM (R,R)-dithiothreitol (DTT), 10% DMSO, 120 mM NaCl, 10 μmolar of the peptide, and 12.5-0.012 μmolar inhibitor in twofold serial dilutions from 20× stocks in 100% DMSO. The enzyme working solution was a 1:3000 dilution of […] human cathepsin K into 100 mM of NaOAc, pH of 5.5, 10 mM DTT, 1.2 M NaCl.
Serial dilutions were performed in 100% DMSO. Columns 2-12 of an intermediate plate were filled with […] of 100% DMSO and column 1 was filled with […]. Next, […] of a 10 mM solution was added to column 1. […] The fluorescence was monitored every 6 minutes for 72 minutes using a CytoFluor Series 4000 PerSeptive Biosystems multi-well fluorescence plate reader with the following settings: gain=50; 20 reads/well; 32° C.; lex=360±20 nm; and lem=440±20 nm.

Herpes Simplex Virus Protease, sequence (P10210 1-247): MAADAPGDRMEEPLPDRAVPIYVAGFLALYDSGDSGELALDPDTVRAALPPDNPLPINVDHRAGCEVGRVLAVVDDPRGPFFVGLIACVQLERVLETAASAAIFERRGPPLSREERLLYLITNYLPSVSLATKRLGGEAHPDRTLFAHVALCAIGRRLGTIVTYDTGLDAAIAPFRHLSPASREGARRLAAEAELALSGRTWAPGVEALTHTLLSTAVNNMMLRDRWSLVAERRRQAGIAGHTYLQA

With `COC(=O)C(Cc1ccccc1)N1CC(O)C(O)CN(Cc2ccccc2)S1(=O)=O` (stereo not drawn) [Scheme R], the inhibition at 200 µM in test [1] came out at 20.5%. `CC(C)CC(COCc1ccccc1)N1CC=CCN(C(COCc2ccccc2)CC(C)C)S1(=O)=O` (stereo not drawn) [Scheme S] returned an inhibition at 99 µM against HIV protease of 96%. As to `COC(=O)C(Cc1ccccc1)N1CC(O)C(O)CN(C(Cc2ccccc2)C(=O)OC)S1(=O)=O` (stereo not drawn) [Scheme T], the inhibition at 99 µM at HIV protease is 22%. The same measure, in the same setting: to `COC(=O)C(Cc1ccccc1)N1CC(O)C(O)CN(Cc2ccccc2)S1(=O)=O` (stereo not drawn) [Scheme U] belongs 21%.

At human cathepsin K, `CC(C)CC(COCc1ccccc1)N1CC=CCN(C(COCc2ccccc2)CC(C)C)S1(=O)=O` (stereo not drawn) [Scheme V] yielded an inhibition at 106 µM of 20%. Same read-out and setting: to `CC(C)CC(C(=O)NO)N1CC=CCN(C(CC(C)C)C(=O)NO)S1(=O)=O` (stereo not drawn) [Scheme W] belongs 14%.
